Reference: article PMC7242285, “JNJ-4178 (adafosbuvir, odalasvir, and simeprevir) in Japanese patients with chronic hepatitis C virus genotype 1 or 2 infection with or without compensated cirrhosis: the Phase IIa OMEGA-3 study” (Journal of Gastroenterology, 2020)
Read-outs that look alike come from different tables or passages of the source.

Tests used:
[1] = set-up: method as in PMID 29736243; conditions: single-dose pharmacokinetic studies (data on file) ref 24; cited from earlier work
[2] = OMEGA-3: plasma pharmacokinetics (sparse sampling and Week 4 intensive sub-study); assay type: in vivo, human (Japanese patients)
Method: Blood samples for the assessment of the plasma pharmacokinetics of adafosbuvir (and its metabolites ALS-022399 and ALS-022227), odalasvir, and simeprevir were collected in all patients pre-dose, between 2 and 4 h post-dose, and between 4 and 6 h post-dose at Weeks 2, 4, 6, and 8 (Cohort 2 only) and EOT (Weeks 8 or 12). An additional plasma sample was taken at any time during the Week-12 follow-up visit for measurement of odalasvir only.
Additional blood samples were also obtained at Week 4 in a subgroup of patients (planned: ≥ 6 patients per cohort) who consented to intensive pharmacokinetic sampling (pharmacokinetic sub-study). Blood samples for adafosbuvir (and its metabolites ALS-022399 and ALS-022227), odalasvir, and simeprevir plasma concentrations were collected pre-dose and at 1, 2, 3, 4, 6, 8, 10, 12, and 24 h post-dose.
Plasma concentrations of adafosbuvir, ALS-022399, ALS-022227, simeprevir, and odalasvir were determined using validated liquid chromatography–mass spectrometry methods. The LLOQ for adafosbuvir and odalasvir was 1.00 ng/mL, for ALS-022399 was 2.00 ng/mL, for ALS-022227 was 5.00 ng/mL, and for simeprevir was 20.0 ng/mL.
Descriptive statistics for plasma concentrations of adafosbuvir (and its metabolites), odalasvir, and simeprevir were calculated at each sampling time point. Pharmacokinetic parameters were derived by non-compartmental pharmacokinetic analysis of adafosbuvir (and its metabolites), odalasvir, and simeprevir in the pharmacokinetic sub-study using actual sampling time points and plasma concentrations obtained during intensive sampling at Week 4. Graphs of the mean plasma concentration–time profiles were produced. An exploratory graphical pharmacokinetic/pharmacodynamic analysis was performed by means of scatter plots of pharmacodynamic parameters (individual PR interval [mean of the triplicate ECG measurements] and change from baseline in PR interval [Day 1 was baseline]) versus odalasvir plasma concentrations.

[3] = OMEGA-3: ECG and echocardiography; assay type: in vivo, human (Japanese patients); conditions: graphical evaluation
From the text: (§1) The primary endpoint was safety, including but not limited to AEs, physical examination, vital signs, 12-lead ECGs, echocardiograms, and clinical laboratory results.
(§2) AEs were reported throughout the study from the time that informed consent to participate was received until completion of the last visit. Complete physical examination, vital signs assessments, and blood and urine sampling for clinical laboratory assessments (including hematological, serum chemistry, liver function, and urinalysis tests) were performed at screening and throughout the study. Triplicate ECGs and echocardiography were also performed at screening and during the study.
Descriptive statistics for plasma concentrations of adafosbuvir (and its metabolites), odalasvir, and simeprevir were calculated at each sampling time point. Pharmacokinetic parameters were derived by non-compartmental pharmacokinetic analysis of adafosbuvir (and its metabolites), odalasvir, and simeprevir in the pharmacokinetic sub-study using actual sampling time points and plasma concentrations obtained during intensive sampling at Week 4. Graphs of the mean plasma concentration–time profiles were produced. […]

[4] = OMEGA-3 Phase IIa study: adverse events and laboratory safety; assay type: in vivo, human (Japanese patients); conditions: given as part of JNJ-4178
From the text: The study comprised a 6-week screening phase, an 8-week (Cohort 1: patients with no cirrhosis) or 12-week (Cohort 2: patients with compensated cirrhosis) open-label treatment phase, and a 24-week post-treatment follow-up period. Given that patients with HCV and compensated cirrhosis potentially have a higher safety risk than patients without compensated cirrhosis, dosing of Cohort 2 was only initiated after all safety data had been reviewed up to Week 4 for the first six patients in Cohort 1 by an independent Data Review Committee (Fig. 1). This study was conducted in accordance with the ethical principles that have their origin in the Declaration of Helsinki and that are consistent with Good Clinical Practices and applicable regulatory requirements. The study was approved by the relevant Institutional Review Board at each study center. All patients provided written, informed consent to participate.
Study drugs were administered orally with food at approximately the same time in the morning, each day.
as §1, §2
The safety analysis was performed on the Safety Set (all patients who received at least one dose of study drug). Safety data were analyzed descriptively. AEs were coded using the Medical Dictionary for Regulatory Activities (version 20.0). Laboratory abnormalities were assessed according to the World Health Organization Toxicity Grading Scale.

[5] = tested on: HCV GT1, GT2, GT4, GT5, and GT6; set-up: method as in PMID 30693573, doi:10.1016/S0168-8278(12)60857-5; conditions: cited from earlier work
[6] = tested on: HCV GT3; set-up: method as in PMID 30693573; conditions: HCV GT3 (data on file); cited from earlier work
[7] = tested on: CYP3A; conditions: cited from earlier work
[8] = tested on: HCV GT3; set-up: method as in PMID 22326470; conditions: cited from earlier work
[9] = tested on: CYP1A2; set-up: method as in PMID 26453968; conditions: cited from earlier work
[10] = tested on: HCV GT1, GT2, GT4, GT5, and GT6; set-up: method as in PMID 22326470; conditions: cited from earlier work
[11] = tested on: HCV GTs 1–6; set-up: method as in doi:10.1016/S0168-8278(17)31470-8, PMID 30070722, PMID 30325939; conditions: cited from earlier work
[12] = Cohort 1: no cirrhosis (N = 22), 8 weeks
[13] = Cohort 2: compensated cirrhosis (N = 11), 12 weeks

In the case of `COC(=O)N[C@H](C(=O)N1[C@H](c2nc3cc(-c4cc5ccc4CCc4ccc(c(-c6ccc7[nH]c([C@@H]8C[C@@H]9CCCC[C@@H]9N8C(=O)[C@@H](NC(=O)OC)C(C)C)nc7c6)c4)CC5)ccc3[nH]2)C[C@@H]2CCCC[C@@H]21)C(C)C` [odalasvir], the Terminal elimination half-life [1] is given as “approximately 250 h”, the “AUC24h, mean (SD)” value ([2]; human, in vivo) is given as 6320 (1898) ng.h/mL and the “Cmax, mean (SD)” value ([2]; human, in vivo) is given as 342 (113) ng/mL. For the same molecule, the “Maximum Cmax among pharmacokinetic sub-study patients” value ([2]; human, in vivo) was 546 ng/mL, the “Ctrough levels in Cohort 2 compared with Cohort 1” value ([2]; in vivo) was “modestly lower” and the “Highest pre-dose concentration among patients” value ([2]; in vivo) was 474 to 889 ng/mL. For the same molecule, the “Steady state judged from Ctrough levels” value ([2]; in vivo) was “steady-state conditions had not entirely been reached yet at Week 4”, the “Relationship between PR interval (absolute and change from baseline) and plasma concentrations” value [3] was “no apparent relationship” and the “Treatment-related AE at least possibly related to the named drug” value (“Treatment-related AE” below) [4, 12] was 9 (40.9) n (%). The “Treatment-related AE” value [4, 13] was 4 (36.4) n (%), the “Treatment-related AE” value ([4]; Overall (N = 33)) was 13 (39.4) n (%) and the Potency [5] was “picomolar”. The Activity [6] was “nanomolar”.

In the case of `C[C@]1(O)[C@H](n2ccc(=O)[nH]c2=O)O[C@](F)(CO)[C@H]1O` [ALS-022227], the “AUC24h, mean (SD)” value ([2]; human, in vivo) is reported as 6688 (3116) ng.h/mL, the “Cmax, mean (SD)” value ([2]; human, in vivo) is reported as 974 (554) ng/mL and the “Steady state judged from Ctrough levels” value ([2]; in vivo) is reported as “steady-state exposure had been reached by Week 2”.

For `COc1ccc2c(O[C@@H]3C[C@H]4C(=O)N[C@]5(C(=O)NS(=O)(=O)C6CC6)C[C@H]5/C=C\CCCCN(C)C(=O)[C@@H]4C3)cc(-c3nc(C(C)C)cs3)nc2c1C` [simeprevir], the “Ctrough, max (between-patient variability)” value ([2]; human, in vivo) was 6090 ng/mL, the “Ctrough, min (between-patient variability)” value ([2]; human, in vivo) was 92.2 ng/mL and the “Steady state judged from Ctrough levels” value ([2]; human, in vivo) was “steady-state exposure had been reached by Week 2”. The AUC(0-t) ([2]; human, in vivo, AUC24h, mean (SD)) was 26900 ng·h/mL, the Cmax ([2]; human, in vivo, Cmax, mean (SD)) was 2200 ng/mL and the “Ctrough levels in Cohort 2 compared with Cohort 1” value ([2]; in vivo) was “higher”. For the same molecule, the Metabolism [7] was “metabolized by cytochrome P450 (CYP) 3A”, the “Inhibition of CYP3A” value ([7]; intestinal (not hepatic) CYP3A) was “mild inhibitor” and the “Antiviral activity in infected patients” value [8] was “no antiviral activity”. The “Inhibition of CYP1A2” value [9] was “mild, but not clinically relevant, inhibitor”, the “Treatment-related AE” value [4, 12] was 6 (27.3) n (%) and the “Treatment-related AE” value [4, 13] was 2 (18.2) n (%). The “Treatment-related AE” value ([4]; Overall (N = 33)) was 8 (24.2) n (%) and the “Antiviral activity in infected patients” value [10] was “demonstrated antiviral activity”.

In the case of `CC(C)OC(=O)[C@H](C)N[P@](=O)(OC[C@@]1(F)O[C@@H](n2ccc(=O)[nH]c2=O)[C@](C)(O)[C@@H]1O)Oc1ccccc1` [adafosbuvir], the “Plasma trough concentration (Ctrough)” value ([2]; all visits, both patient cohorts, LLOQ 1.00 ng/mL adafosbuvir, 2.00 ng/mL ALS-022399) is reported as “below the limit of quantification”, the AUC(0-t) ([2]; human, in vivo, plasma, Week 4, intensive sampling, Cohort 2 (n=2), first value listed, read-out: AUC24h, individual value) is reported as 3020 ng·h/mL and the Cmax ([2]; human, in vivo, plasma, Week 4, intensive sampling, Cohort 2 (n=2), first value listed, read-out: Cmax, individual value) is reported as 964 ng/mL. It also gave an AUC(0-t) ([2]; human, in vivo, plasma, Week 4, intensive sampling, Cohort 2 (n=2), second value listed, read-out: AUC24h, individual value) of 3030 ng·h/mL, a Cmax ([2]; human, in vivo, plasma, Week 4, intensive sampling, Cohort 2 (n=2), second value listed, read-out: Cmax, individual value) of 1430 ng/mL and an AUC(0-t) ([2]; human, in vivo, plasma, Week 4, intensive sampling, JNJ-4178 dosing, Cohort 1: no cirrhosis (n=8), read-out: AUC24h, mean (SD)) of 1660 ng·h/mL. The Cmax ([2]; human, in vivo, plasma, Week 4, intensive sampling, JNJ-4178 dosing, Cohort 1: no cirrhosis (n=8), read-out: Cmax, mean (SD)) was 903 ng/mL, the Antiviral activity [11] was “potent antiviral activity” and the “Treatment-related AE” value [4, 12] was 6 (27.3) n (%). The “Treatment-related AE” value [4, 13] was 3 (27.3) n (%) and the “Treatment-related AE” value ([4]; Overall (N = 33)) was 9 (27.3) n (%).
